Results taken from paper PMC9937993, “Structures of the NDP-pyranose mutase belonging to glycosyltransferase family 75 reveal residues important for Mn^2+ coordination and substrate binding” (The Journal of Biological Chemistry, 2023).

Columns and labels:
Type in all cases: binding
MtdL [1] = biological target: MtdL (Marinactinospora thermotolerans, UniProt G8HX37, N42D); assay: ITC
MtdL [2] = biological target: MtdL (Marinactinospora thermotolerans, UniProt G8HX37, T13P); assay: ITC
MtdL [3] = biological target: T1, MtdL (Marinactinospora thermotolerans, UniProt G8HX37); assay: ITC; crystal structure of GDP·Mn2+·MtdL at […] Å
T1 sequence (G8HX37 1-376): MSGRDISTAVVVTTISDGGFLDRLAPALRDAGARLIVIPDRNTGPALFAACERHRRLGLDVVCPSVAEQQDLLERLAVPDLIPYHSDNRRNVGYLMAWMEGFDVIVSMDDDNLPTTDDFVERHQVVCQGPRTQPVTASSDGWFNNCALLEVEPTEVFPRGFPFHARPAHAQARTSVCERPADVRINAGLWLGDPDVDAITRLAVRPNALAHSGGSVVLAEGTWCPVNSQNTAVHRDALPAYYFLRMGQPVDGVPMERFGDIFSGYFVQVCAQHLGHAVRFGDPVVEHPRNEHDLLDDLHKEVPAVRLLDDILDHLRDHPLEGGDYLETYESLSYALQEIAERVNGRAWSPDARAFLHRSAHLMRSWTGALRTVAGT

Nc1nc2c(ncn2[C@@H]2O[C@H](COP(=O)(O)OP(=O)(O)O)[C@@H](O)[C@H]2O)c(=O)[nH]1 [GDP]
Kd (MtdL [1]): ~1.24 µM | Kd (MtdL [2]): ~5.66 µM | Kd (MtdL [3]): ~0.2 µM
